Assays:
Type in all cases: cell-based, human
[1] = system: HT-29 (colorectal carcinoma, B-RafV600E) cells; assay: Cell proliferation (Alamar Blue) assay, HT-29; conditions: Homo sapiens, HT-29, HT29 cells
Summary of the method: (§1)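 Fluorescence read-out (ex 540 nm, em 590 nm) after 1-3 h with 1× Alamar Blue, following 72 h compound exposure at 37° C./5% CO2. Compounds tested at typically 0.0005 to 10 uM, 3-fold steps; IC50 by sigmoidal dose-response (variable slope).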

[2] = system: HCT116 (colorectal carcinoma, K Ras G13D) cells; assay: Cell proliferation (Alamar Blue) assay, HCT116; conditions: Homo sapiens, HCT-116, HCT116 cells
Summary of the method: as §1

[3] = system: phosphorylation of RSK1(S380) (the downstream target of ERK1/2); assay: Phospho-RSK1(S380) ELISA assay in HT-29 cells; conditions: Homo sapiens, HT-29, HT29 cells, phospho-RSK1(S380); read-out: Mechanistic Cell Assay RSK1 Phos HT29 IC50
Summary of the method: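 HT-29 colorectal carcinoma cells (B-RafV600E), plated overnight at 37° C./5% CO2, were treated with compound dilutions for 2 h. Lysates were analysed by phospho-RSK1(Ser380) sandwich ELISA with absorbance at 450 nm. IC50 came from a sigmoidal variable-slope dose-response fit.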

SMILES	IC50 [1] [nM]	IC50 [2] [nM]	IC50 [3] [nM]
Cc1cc(Nc2ncc(C)c(-n3ccc(C(=O)NC(CO)c4cccc(Cl)c4)c3)n2)ccc1C1CCNCC1 (stereo not drawn) [Example 182, N-(1-(3-chlorophenyl)-2-hydroxyethyl)-1-(5-methyl-2-((3-methyl-4-(piperidin-4-yl)phenyl)amino)pyrimidin-4-yl)-1H-pyrrole-3-carboxamide]	500 to 2500	250 to 500	500 to 2500
Cc1cn(-c2ccnc(Nc3ccccc3)c2)cc1C(=O)N[C@H](CO)c1cccc(Cl)c1 [Example 183, (S)-N-(1-(3-chlorophenyl)-2-hydroxyethyl)-4-methyl-1-(2-(phenylamino)pyridin-4-yl)-1H-pyrrole-3-carboxamide]	> 2500	> 2500	500 to 2500
COc1ccc(Nc2ncc(C)c(-n3ccc(C(=O)NC(CO)c4cccc(Cl)c4)c3)n2)cc1OCCCN(C)C (stereo not drawn) [Example 184, N-(1-(3-chlorophenyl)-2-hydroxyethyl)-1-(2-((3-(3-(dimethylamino)propoxy)-4-methoxyphenyl)amino)-5-methylpyrimidin-4-yl)-1H-pyrrole-3-carboxamide]	500 to 2500	250 to 500	500 to 2500
Cc1cnc(Nc2ccc3c(c2)OCC3)nc1-n1ccc(C(=O)NC(CO)c2ccccc2)c1 (stereo not drawn) [Example 185, 1-(2-((2,3-dihydrobenzofuran-6-yl)amino)-5-methylpyrimidin-4-yl)-N-(2-hydroxy-1-phenylethyl)-1H-pyrrole-3-carboxamide]	250 to 500	250 to 500	250 to 500
Cc1cnc(Nc2ccc3c(c2)OCCC3)nc1-n1ccc(C(=O)NC(CO)c2ccccc2)c1 (stereo not drawn) [Example 186, 1-(2-(chroman-7-ylamino)-5-methylpyrimidin-4-yl)-N-(2-hydroxy-1-phenylethyl)-1H-pyrrole-3-carboxamide]	500 to 2500	250 to 500	500 to 2500
Cc1cccc(C(CO)NC(=O)c2ccn(-c3nc(N[C@H]4CCOC4)ncc3C)c2)c1 (stereo partly drawn) [Example 187, N-(2-hydroxy-1-(m-tolyl)ethyl)-1-(5-methyl-2-(((S)-tetrahydrofuran-3-yl)amino)pyrimidin-4-yl)-1H-pyrrole-3-carboxamide]	250 to 500	500 to 2500	250 to 500
O=C(N[C@H](CO)c1cccc(Cl)c1)c1ccn(-c2ccnc(NC3CCOC3)c2)c1 (stereo partly drawn) [Example 188, N-((S)-1-(3-chlorophenyl)-2-hydroxyethyl)-1-(2-((tetrahydrofuran-3-yl)amino)pyridin-4-yl)-1H-pyrrole-3-carboxamide]	> 2500	> 2500	> 2500
Cc1cnc(NCC2CCCO2)nc1-n1ccc(C(=O)N[C@H](CO)c2cccc(Cl)c2)c1 (stereo partly drawn) [Example 190, N-((S)-1-(3-chlorophenyl)-2-hydroxyethyl)-1-(5-methyl-2-(((tetrahydrofuran-2-yl)methyl)amino)pyrimidin-4-yl)-1H-pyrrole-3-carboxamide]	> 2500	> 2500	250 to 500
Cc1cnc(NCc2cccnc2)cc1-n1ccc(C(=O)NC(CO)c2ccc(F)c(Cl)c2)c1 (stereo not drawn) [Example 193, N-(1-(3-chloro-4-fluorophenyl)-2-hydroxyethyl)-1-(5-methyl-2-((pyridin-3-ylmethyl)amino)pyridin-4-yl)-1H-pyrrole-3-carboxamide]	> 2500	> 2500	500 to 2500
Cc1cnc(Nc2ccc(F)c(C(=O)N(C)C)c2)nc1-n1ccc(C(=O)NC(CO)c2cccc(Cl)c2)c1 (stereo not drawn) [Example 194, N-(1-(3-chlorophenyl)-2-hydroxyethyl)-1-(2-((3-(dimethylcarbamoyl)-4-fluorophenyl)amino)-5-methylpyrimidin-4-yl)-1H-pyrrole-3-carboxamide]	250 to 500	500 to 2500	250 to 500
Cc1cnc(NC2CCCCC2)nc1-n1ccc(C(=O)NC(CO)c2cccc(Cl)c2)c1 (stereo not drawn) [Example 195, N-(1-(3-chlorophenyl)-2-hydroxyethyl)-1-(2-(cyclohexylamino)-5-methylpyrimidin-4-yl)-1H-pyrrole-3-carboxamide]	100 to 250	500 to 2500	100 to 250
CNC(=O)c1ccc(Nc2ncc(C)c(-n3ccc(C(=O)NC(CO)c4cccc(Cl)c4)c3)n2)cc1 (stereo not drawn) [Example 196, N-(1-(3-chlorophenyl)-2-hydroxyethyl)-1-(5-methyl-2-((4-(methylcarbamoyl)phenyl)amino)pyrimidin-4-yl)-1H-pyrrole-3-carboxamide]	500 to 2500	500 to 2500	500 to 2500
CCC(C)Nc1ncc(C)c(-n2ccc(C(=O)N[C@H](CO)c3ccc(F)c(Cl)c3)c2)n1 (stereo partly drawn) [Example 197, 1-(2-(sec-butylamino)-5-methylpyrimidin-4-yl)-N-((S)-1-(3-chloro-4-fluorophenyl)-2-hydroxyethyl)-1H-pyrrole-3-carboxamide]	500 to 2500	> 2500	250 to 500
Cc1cnc(Nc2ccc3c(c2)CC(=O)N3)nc1-n1ccc(C(=O)NC(CO)c2cccc(Cl)c2)c1 (stereo not drawn) [Example 198, N-(1-(3-chlorophenyl)-2-hydroxyethyl)-1-(5-methyl-2-((2-oxoindolin-5-yl)amino)pyrimidin-4-yl)-1H-pyrrole-3-carboxamide]	500 to 2500	500 to 2500	500 to 2500
Cc1cnc(NC2CCCN(C)C2)nc1-n1ccc(C(=O)NC(CO)c2cccc(Cl)c2)c1 (stereo not drawn) [Example 199, N-(1-(3-chlorophenyl)-2-hydroxyethyl)-1-(5-methyl-2-((1-methylpiperidin-3-yl)amino)pyrimidin-4-yl)-1H-pyrrole-3-carboxamide]	500 to 2500	> 2500	500 to 2500
Cc1cnc(NC2CCCCC2O)nc1-n1ccc(C(=O)NC(CO)c2ccc(F)c(Cl)c2)c1 (stereo not drawn) [Example 202, N-(1-(3-chloro-4-fluorophenyl)-2-hydroxyethyl)-1-(2-((2-hydroxycyclohexyl)amino)-5-methylpyrimidin-4-yl)-1H-pyrrole-3-carboxamide]	500 to 2500	> 2500	> 2500
Cc1cnc(N[C@H]2CCOC2)nc1-n1ccc(C(=O)NC(CO)c2ccc(F)cc2)c1 (stereo partly drawn) [Example 204, N-(1-(4-fluorophenyl)-2-hydroxyethyl)-1-(5-methyl-2-(((S)-tetrahydrofuran-3-yl)amino)pyrimidin-4-yl)-1H-pyrrole-3-carboxamide]	500 to 2500	> 2500	500 to 2500
Cc1cnc(Nc2ccc(N3CCOCC3)cc2)nc1-n1ccc(C(=O)NC(CO)c2cccc(Cl)c2)c1 (stereo not drawn) [Example 205, N-(1-(3-chlorophenyl)-2-hydroxyethyl)-1-(5-methyl-2-((4-morpholinophenyl)amino)pyrimidin-4-yl)-1H-pyrrole-3-carboxamide]	100 to 250	250 to 500	100 to 250
NCC(NC(=O)c1ccn(-c2ccnc(Nc3ccc(F)cc3)c2)c1)c1ccccc1 (stereo not drawn) [Example 206, N-(2-amino-1-phenylethyl)-1-(2-((4-fluorophenyl)amino)pyridin-4-yl)-1H-pyrrole-3-carboxamide]	500 to 2500	> 2500	500 to 2500
Cc1cccc([C@@H](CO)NC(=O)c2ccn(-c3nc(N[C@H]4CCOC4)ncc3C)c2)n1 [Example 207, N-((S)-2-hydroxy-1-(6-methylpyridin-2-yl)ethyl)-1-(5-methyl-2-(((S)-tetrahydrofuran-3-yl)amino)pyrimidin-4-yl)-1H-pyrrole-3-carboxamide]	250 to 500	> 2500	500 to 2500
Cc1cnc(N[C@H]2CCOC2)nc1-n1ccc(C(=O)N(C)C(CO)c2cccc(Cl)c2)c1 (stereo partly drawn) [Example 212, N-(1-(3-chlorophenyl)-2-hydroxyethyl)-N-methyl-1-(5-methyl-2-(((S)-tetrahydrofuran-3-yl)amino)pyrimidin-4-yl)-1H-pyrrole-3-carboxamide]	500 to 2500	> 2500	500 to 2500
Cc1cnc(Nc2ccc(F)c(N3CCNCC3)c2)nc1-n1ccc(C(=O)NC(CO)c2cccc(Cl)c2)c1 (stereo not drawn) [Example 213, N-(1-(3-chlorophenyl)-2-hydroxyethyl)-1-(2-((4-fluoro-3-(piperazin-1-yl)phenyl)amino)-5-methylpyrimidin-4-yl)-1H-pyrrole-3-carboxamide]	100 to 250	250 to 500	250 to 500
Cc1cnc(NC2CCNCC2)nc1-n1cnc(C(=O)NC(CO)c2cccc(Cl)c2)c1 (stereo not drawn) [Example 214, N-(1-(3-chlorophenyl)-2-hydroxyethyl)-1-(5-methyl-2-(piperidin-4-ylamino)pyrimidin-4-yl)-1H-imidazole-4-carboxamide]	> 2500	> 2500	> 2500
Cc1cnc(Nc2ccc(C3CCNCC3)cc2)nc1-n1ccc(C(=O)NC(CO)c2cccc(Cl)c2)c1 (stereo not drawn) [Example 215, N-(1-(3-chlorophenyl)-2-hydroxyethyl)-1-(5-methyl-2-((4-(piperidin-4-yl)phenyl)amino)pyrimidin-4-yl)-1H-pyrrole-3-carboxamide]	250 to 500	> 2500	500 to 2500
Cc1cnc(Nc2ccc(C3CCNCC3)c(F)c2)nc1-n1ccc(C(=O)NC(CO)c2cccc(Cl)c2)c1 (stereo not drawn) [Example 216, N-(1-(3-chlorophenyl)-2-hydroxyethyl)-1-(2-((3-fluoro-4-(piperidin-4-yl)phenyl)amino)-5-methylpyrimidin-4-yl)-1H-pyrrole-3-carboxamide]	250 to 500	500 to 2500	500 to 2500
